# Laboratory results: patent US7994125B2, “Stem cell factor for preventing chemotherapy-induced depletion of blood cells” (Istituto Superiore Di Sanita, priority 2003, dated 2011)
# Legend:
# [1] = system: megakaryocytic precursors; experiment: Chemotherapy-induced cell death of megakaryocytic cells; assay type: cell-based; conditions: for sensitivity of mature polynucleated megakaryocytic precursors versus day 6 immature precursors: Etoposide 4 micromolar, Daunorubicin 0.5 micromolar or Vincristine 0.5 micromolar
# Description: Decreased platelet number is a common side effect of chemotherapy. In a separate set of experiments, the protective effect of SCF on chemotherapy-induced cell death was evaluated on megakaryocytic cells, which derive from hematopoietic stem and progenitor cells and give rise to platelets. […] We pretreated immature megakaryocytic precursors at day 4 of differentiation with SCF for 48 hours before exposure to chemotherapeutic agents. SCF was maintained during the exposure to chemotherapic agents.
# [2] = system: caspase 3, caspase 7 and caspase 8
# Description: (§1) FIG. 2. […] After 24 hours the percentage of cell death was determined by ethidium bromide/acridine orange staining.
# (§2) FIG. 4. […] After 48 hours, 4×10^4 cells were washed and replated in standard erythroid medium with or without 100 ng/ml SCF.
# Western blotting. For detection of caspases, protein extracts were prepared by resuspending cell pellets in 1% NP40 lysis buffer (20 mM Tris/HCl pH 7.2, 200 mM NaCl, 1% NP40) in the presence of 1 mM phenylmethylsulphonyl fluoride (PMSF) and 2 μg/ml each of leupeptin, aprotinin and pepstatin. Concentration of lysates was determined by the Bradford assay (Bio-Rad Laboratories, Richmond, Calif.) and equal amounts of proteins were used for SDS-PAGE. Samples were analyzed by standard immunoblot procedure and visualized by chemiluminescence (Super Signal West Pico Pierce, Rockford, Ill.). Quantification of protein expression levels was performed with the NIH IMAGE software version 1.62 (by Wayne Rasband, National Institutes of Health, Research Services Branch, NIMH).
# [3] = system: day 7 (pro/basophilic) erythroblasts
# Description: (§3) FIG. 1. Chemosensitivity of CD34^+ progenitors and erythroid precursors.
# as §1
# (§4) Adult peripheral blood human progenitor cell (HPC) purification and culture. Adult peripheral blood was obtained from male donors after their informed consent and the approval by the Committee for Human Studies. Human CD34^+ precursor cells were purified from peripheral blood by positive selection using the midi-MACS immunomagnetic separation system (Miltenyi Biotec, Bergisch Gladbach, Germany) according to the manufacturer's instructions. CD34^+ precursors were cultured in serum-free medium supplemented with 0.01 U/ml interleukin-3 (IL-3), 0.001 ng/ml GM-CSF and 3 U/ml Epo to induce unilineage erythroid differentiation. […] Cell viability was evaluated by ethidium bromide-acridine orange staining and fluorescence microscopy analysis.^15 The differentiation stage of erythroid precursor cells was evaluated by May-Grünwald-Giemsa staining and cytologic analysis. Ziegler B, Testa U, Condorelli G, Vitelli L, Valtieri M, Peschle C. Unilineage hematopoietic differentiation in bulk and single cell culture. Stem Cells. 1998; 16(suppl 1):51-73. For clonogenetic assay, 10^2 CD34^+ cells and 2×10^2 cells from day 5 or day 7 unilineage erythroid cultures were plated in duplicate in 0.9% methylcellulose containing 40% FCS and saturating concentrations of erythropoietin (3 U/mL), TPO (50 ng/mL), granulocyte macrophage-colony stimulating factor (GM-CSF; 10 ng/mL), M-CSF (250 U/mL), G-CSF (500 U/mL), IL-6 (10 ng/mL), stem cell factor (100 ng/mL), Flt3 ligand (100 ng/mL), and IL-3 (100 U/mL). Colonies were scored after 14 days of culture at 37° C. in a 5% CO2/5% O2/90% N2 humidified atmosphere.
# day 7 erythroblasts = experiment: Erythroblast recovery and expansion after removal of cisplatin; assay type: cell-based
# Description: as §2
# [4] = system: day 7 erythroid culture cells; experiment: Clonogenetic assay of erythroid unilineage culture cells in semisolid medium; assay type: cell-based, human; conditions: two-days treatment with 100 ng/ml SCF (day 5 to day 7)
# Description: FIG. 5. […] (A) Clonogenetic assay of CD34^+ cells (day 0) or cells grown in liquid culture and subsequently plated in semisolid medium at day 5 or day 7 of erythroid differentiation. Control cells (day 5 and day 7 Epo) were cultivated in standard erythroid medium before the colony assay, whereas SCF-treated cells (day 7 Epo+SCF) received 100 ng/ml SCF from day 5 to day 7 of liquid culture. (B) Cytofluorimetric analysis of glycophorin A-positive cells in erythroid unilineage culture. Cells were analyzed after five (day 5) or seven days (day 7) of erythroid differentiation in standard erythroid medium (Epo) or in the same medium supplied with 100 ng/ml SCF starting from day 5 (Epo+SCF).
# (§5) Unilineage hematopoietic differentiation in bulk and single cell culture. Stem Cells. 1998; 16(suppl 1):51-73.
# SCF supports the selective expansion of erythroid cells in unilineage culture conditions after treatment with chemotherapeutic agents. Theoretically, SCF may promote the growth of non-erythroid cells present in small numbers in erythroblastic cultures, and even specifically protect these contaminants from cytotoxic drugs, thus generating a post-chemotherapy population of non-erythroid cells. […]
# [5] = system: anti-apoptotic genes belonging to the Bcl-2 family and to the Notch family; experiment: Expression of pro- and anti-apoptotic genes in SCF-treated erythroid precursor cells; assay type: cell-based, human
# From the text: In order to elucidate the mechanisms responsible for the protective effect of SCF from chemotherapy-induced cell death, we analysed the expression of pro- and anti-apoptotic genes in SCF-treated erythroid precursor cells. SCF induced an upregulation of anti-apoptotic genes belonging to the Bcl-2 family and to the Notch family, as well as an increase in the levels of several transcription factors involved in the control of cellular proliferation and survival.
# [6] = system: erythroid and granulocytic precursor cells, uncommitted CD34+ progenitors; experiment: SCF treatment of purified hematopoietic progenitors and precursors exposed to antineoplastic agents; assay type: cell-based, human
# From the text: Purified populations of hematopoietic progenitors and precursors are routinarily obtained in our laboratory through purification of […] cells from peripheral blood and culture in serum-free medium with unilineage growth factors. Hematopoietic progenitor cells display different sensitivity to the cytotoxic effect of chemotherapeutic agents depending on their lineage commitment and stage of maturation. […] The protective effects of SCF are achieved by administrating this cytokine before the cytotoxic treatment, during the course of the treatment itself and after the toxic stimulus has been interrupted. […] Importantly, once the toxic stimulus has been removed, SCF-treated cells re-enter the differentiative pathway, maintaining their ability to complete successfully the normal maturation process.
# [7] = in vivo; cited from earlier work
# Bcl-2 and Bcl-XL = experiment: Western blot analysis of Bcl-2 and Bcl-XL levels in day 7 erythroblasts; assay type: cell-based, human; conditions: erythroblasts treated for two days with 100 ng/ml SCF versus standard erythroid medium
# CD34 positive cells = experiment: Protection of proliferating CD34 positive cells from chemotherapeutic agents in vitro; assay type: cell-based
# Description: as §4
# [8] = system: day 14 (orthochromatic) erythroblasts; experiment: Chemosensitivity of day 14 erythroblasts, cell death by ethidium bromide/acridine orange staining; assay type: cell-based; conditions: 24 hours, 1.5 μg/ml cisplatin or 50 ng/ml camptothecin
# From the text: as §3, §5
# (§6) Nature. […] Unilineage hematopoietic differentiation in bulk and single cell culture. Stem Cells. 1998; 16(suppl 1):51-73).
# CD34+ progenitors = experiment: Chemosensitivity of CD34+ progenitors, cell death by ethidium bromide/acridine orange staining; assay type: cell-based, human; conditions: CD34+ cells; 24 hours; 1.5 μg/ml cisplatin or 50 ng/ml camptothecin; standard erythroid medium
# From the text: as §3, §5, §6
compound,measurement,setting,value
COc1cccc2c1C(=O)c1c(O)c3c(c(O)c1C2=O)C[C@@](O)(C(C)=O)C[C@@H]3O[C@H]1C[C@H](N)[C@H](O)[C@H](C)O1 [Daunorubicin],sensitivity of mature polynucleated megakaryocytic precursors versus day 6 immature precursors,[1],more resistant
zVAD-fmk [reference compound],effect on drug-induced caspase activation,"[2]; zVAD 40 μM, day 7 erythroblasts, 8 hours",abolished caspase activation
same,effect on chemotherapy-induced erythroblast death,"[3]; zVAD 40 μM, camptothecin, cisplatin or etoposide, 24 hours",abrogated completely
CC[C@]1(O)C[C@H]2CN(CCc3c([nH]c4ccccc34)[C@@](C(=O)OC)(c3cc4c(cc3OC)N(C=O)[C@H]3[C@@](O)(C(=O)OC)[C@H](OC(C)=O)[C@]5(CC)C=CCN6CC[C@]43[C@@H]65)C2)C1 [Vincristine],sensitivity of mature polynucleated megakaryocytic precursors versus day 6 immature precursors,[1],more resistant
same,death of early megakaryocytic cells,"[1]; day 6 precursors, Vincristine 0.5 micromolar",100%
same,death of late megakaryocytic cells,"[1]; day 12 precursors, Vincristine 0.5 micromolar",20%
"SCF: haematopoietic growth factor, 18.6 KD, ligand of c-Kit; human recombinant SCF purchased from Peprotech",proliferative activity after removal of the cytotoxic agent,"day 7 erythroblasts; SCF day 5-9, 3 μg/ml cisplatin 48 hours, washed, fresh medium",regained full proliferative activity
same,proliferation of survived erythroid cells with SCF maintained after drug removal,"day 7 erythroblasts; SCF day 5-21, 3 μg/ml cisplatin 48 hours",high proliferation rate
same,survival to cisplatin treatment,"day 7 erythroblasts; preincubated two days with 100 ng/ml SCF, 3 μg/ml cisplatin for 48 hours",enhanced survival
same,growth of erythroid colonies,[4],significant stimulatory effect
same,percentage of granulo-monocytic colonies,[4],did not significantly increase
same,protection of megakaryocytic cells from toxic effects of antineoplastic drugs,"[1]; 100 ng/ml SCF from day 4 for 48 hours and during exposure, Etoposide, Daunorubicin or Vincristine",significantly protected
same,"amount of inactive pro-caspase 3, 7 and 8 versus control erythroblasts","[2]; pretreated two days with SCF, 8 hours camptothecin, cisplatin or etoposide",significantly higher
same,expression of anti-apoptotic genes of the Bcl-2 family and Notch family,[5],upregulation
same,protection from death induced by antineoplastic agents,[6],strong protection
same,tolerability of administration,[7],generally well tolerated
same,Bcl-2 and Bcl-XL protein levels,Bcl-2 and Bcl-XL,upregulated
same,CD34 positive cells surviving,"CD34 positive cells; 3 micrograms/mL Cisplatin, cells induced to proliferate with interleukin-3 (50 units/mL) and fms-like tyrosine kinase 3 (100 nanograms/mL), treated with SCF",about 50%
same,expansion and clonogenetic output after removal of chemotherapeutic drugs,"CD34 positive cells; SCF-treated cells, clonogenetic assays",able to expand and give rise to all the standard hematopoietic populations
same,protection of CD34 positive cells from cytotoxic activity of chemotherapeutic agents,"CD34 positive cells; in vitro, Cisplatin, Etoposide and Daunorubicin",protects
same,protection of erythroblasts from toxic effects of antineoplastic drugs,"[3]; 100 ng/ml SCF from day 5 for 48 hours and during exposure, camptothecin, cisplatin or etoposide",significantly protected
CC[C@@]1(O)C(=O)OCc2c1cc1n(c2=O)Cc2cc3ccccc3nc2-1 [camptothecin],sensitivity to cytotoxic effect of chemotherapeutic agents,[8],almost completely resistant
same,sensitivity to drug-induced apoptosis,CD34+ progenitors,modest sensitivity
same,caspase activation by cytotoxic drug,"[2]; day 7 erythroblasts, 8 hours, 200 ng/ml camptothecin, 3 μg/ml cisplatin or 5 μM etoposide","activated caspase 3, 7 and 8"
same,sensitivity to cytotoxic effect of chemotherapeutic agents,"[3]; day 7 immature erythroblasts, 24 hours, 1.5 μg/ml cisplatin or 50 ng/ml camptothecin, saturating Epo",extremely sensitive
COc1cc([C@@H]2c3cc4c(cc3[C@@H](O[C@@H]3O[C@@H]5CO[C@@H](C)O[C@H]5[C@H](O)[C@H]3O)[C@H]3COC(=O)[C@H]23)OCO4)cc(OC)c1O [etoposide],sensitivity of mature polynucleated megakaryocytic precursors versus day 6 immature precursors,[1],more resistant
"N.N.[Cl][Pt][Cl] [cisplatin, reference compound]",sensitivity to drug-induced apoptosis,CD34+ progenitors,modest sensitivity
same,death of CD34 positive cells in absence of SCF,"CD34 positive cells; 3 micrograms/mL Cisplatin, proliferating cells (interleukin-3, fms-like tyrosine kinase 3), no SCF",virtually all cells die
